Columns and labels:
[1] = biological target: Human Prostanoid EP4 Receptor (Homo sapiens (Human), UniProt P35408); assay: Radioligand binding assay, agonist site of the human prostanoid EP4 receptor in transfected HEK-293 cells ([3H]PGE2)
Protocol: Radioligand Binding Assay for the Evaluation of the Affinity of Compounds for the Agonist Site of the Human Prostanoid EP4 Receptor in Transfected HEK-293 Cells
Following incubation, the samples are filtered rapidly under vacuum through glass fiber filters (GF/B, Packard) presoaked with 0.3% PEI and rinsed several times with ice-cold 50 mM Tris-HCl using a 96-sample cell harvester (Unifilter, Packard). The filters are dried then counted for radioactivity in a scintillation counter (Topcount, Packard) using a scintillation cocktail (Microscint 0, Packard).

[2] = biological target: T1, EP4 receptor (Rattus norvegicus (Rat), UniProt P43114); assay: STEP plate cell functional assay, SEAP activity, EP4; format: cell-based; conditions: SEAP reporter, 6-8 hours stimulation
From the text: (§1) Functional Cellular Assays (STEP Plate Format)
(§2) Procedure of SEAP Activity Assay for EP2/EP4 Agonist
(§3) 3. […] In addition each concentration had triplicates.
(§4) 4. […] Cover the plate with the lid.

[3] = biological target: T1, EP4 receptor; assay: STEP plate cell functional assay, cAMP level (ELISA), EP4; format: cell-based; conditions: 30 minutes, 500 μM IBMX
From the text: as §1
Procedure of cAMP Assay for EP2/EP4 Agonist
as §3
6. Aspirate the supernatant.

[4] = biological target: EP2 receptor (Rattus norvegicus (Rat), UniProt Q62928); assay: STEP plate cell functional assay, SEAP activity, EP2; format: cell-based; conditions: SEAP reporter, 6-8 hours stimulation
From the text: as §1, §2, §3, §4

T1 sequence (P43114 whole entry): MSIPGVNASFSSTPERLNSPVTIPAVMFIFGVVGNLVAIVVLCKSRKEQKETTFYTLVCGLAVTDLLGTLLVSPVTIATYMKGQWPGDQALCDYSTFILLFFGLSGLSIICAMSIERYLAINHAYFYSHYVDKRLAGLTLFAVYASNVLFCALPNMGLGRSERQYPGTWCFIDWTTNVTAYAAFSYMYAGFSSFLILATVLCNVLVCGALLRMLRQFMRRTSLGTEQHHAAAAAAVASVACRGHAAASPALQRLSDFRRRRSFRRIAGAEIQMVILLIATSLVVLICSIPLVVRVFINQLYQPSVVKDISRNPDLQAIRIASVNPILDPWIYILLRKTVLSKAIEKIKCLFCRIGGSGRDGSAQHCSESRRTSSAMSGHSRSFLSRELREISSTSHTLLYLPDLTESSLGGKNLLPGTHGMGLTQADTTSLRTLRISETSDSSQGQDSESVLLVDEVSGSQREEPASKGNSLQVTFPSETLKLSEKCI
EP2 receptor, sequence (Q62928 whole entry): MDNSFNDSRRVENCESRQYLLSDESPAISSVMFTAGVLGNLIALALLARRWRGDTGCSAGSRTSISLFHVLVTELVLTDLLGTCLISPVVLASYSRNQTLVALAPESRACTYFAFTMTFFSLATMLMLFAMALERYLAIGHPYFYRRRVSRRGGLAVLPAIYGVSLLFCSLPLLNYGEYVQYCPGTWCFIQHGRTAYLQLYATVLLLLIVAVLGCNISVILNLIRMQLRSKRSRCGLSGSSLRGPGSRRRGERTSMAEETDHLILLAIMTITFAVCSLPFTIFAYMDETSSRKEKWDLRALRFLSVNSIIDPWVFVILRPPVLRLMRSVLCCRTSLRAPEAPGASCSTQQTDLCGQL
Human Prostanoid EP4 Receptor, sequence (P35408 whole entry): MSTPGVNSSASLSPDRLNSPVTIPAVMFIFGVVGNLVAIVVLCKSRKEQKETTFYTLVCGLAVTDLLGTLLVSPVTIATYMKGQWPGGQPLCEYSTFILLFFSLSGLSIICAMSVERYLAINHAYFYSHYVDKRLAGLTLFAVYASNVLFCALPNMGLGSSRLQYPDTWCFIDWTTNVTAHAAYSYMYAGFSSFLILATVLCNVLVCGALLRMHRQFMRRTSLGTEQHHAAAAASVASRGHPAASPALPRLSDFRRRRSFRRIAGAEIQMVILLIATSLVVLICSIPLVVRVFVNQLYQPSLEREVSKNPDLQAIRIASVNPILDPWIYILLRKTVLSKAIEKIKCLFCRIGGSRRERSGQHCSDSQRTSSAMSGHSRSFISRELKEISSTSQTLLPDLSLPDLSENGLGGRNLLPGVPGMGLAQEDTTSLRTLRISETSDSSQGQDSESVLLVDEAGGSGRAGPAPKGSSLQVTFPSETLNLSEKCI

Structure (SMILES)	IC50 ([1]; read-out: hEP4 receptor binding IC50) [nM]	Ki ([1]; read-out: hEP4 receptor binding Ki) [nM]	EC50 [2] [nM]	EC50 [3] [nM]	EC50 [4] [nM]
O=C(O)CCCCCCN1C(=O)CC[C@@H]1/C=C/[C@@H](O)CCCCc1ccccc1 [Example 1C, 7-((R)-2-((S,E)-3-hydroxy-7-phenylhept-1-en-1-yl)-5-oxopyrrolidin-1-yl)heptanoic acid]	10	3.8	0.014 ± 0.02	1.37	> 1000
CC(CCCc1ccccc1)[C@H](O)/C=C/[C@H]1CCC(=O)N1CCCc1ccc(C(=O)O)s1 (mixture of isomers) [Example 4C, 5-(3-((2R)-2-((3S,E)-3-hydroxy-4-methyl-7-phenylhept-1-en-1-yl)-5-oxopyrrolidin-1-yl)propyl)thiophene-2-carboxylic acid]			0.003		2280
CC(CCCc1ccccc1)[C@H](O)/C=C/[C@H]1CCC(=O)N1CCCCCCC(=O)O (mixture of isomers) [Example 2C, 7-((2R)-2-((3S,E)-3-hydroxy-4-methyl-7-phenylhept-1-en-1-yl)-5-oxopyrrolidin-1-yl)heptanoic acid]			0.001 ± 0.001	0.007	> 1000
CC(CCCc1ccccc1)[C@@H](O)/C=C/[C@H]1CCC(=O)N1CC#Cc1ccc(C(=O)O)s1 (mixture of isomers) [Example 3D, 5-(3-((2R)-2-((3R,E)-3-hydroxy-4-methyl-7-phenylhept-1-en-1-yl)-5-oxopyrrolidin-1-yl)prop-1-yn-1-yl)thiophene-2-carboxylic acid]			31.5		> 10000
CC(CCCc1ccccc1)[C@H](O)/C=C/[C@H]1CCC(=O)N1CC#Cc1ccc(C(=O)O)s1 (mixture of isomers) [Example 3C, 5-(3-((2R)-2-((3S,E)-3-hydroxy-4-methyl-7-phenylhept-1-en-1-yl)-5-oxopyrrolidin-1-yl)prop-1-yn-1-yl)thiophene-2-carboxylic acid]			0.019		> 10000
CC(CCCc1ccccc1)[C@@H](O)/C=C/[C@H]1CCC(=O)N1CCCc1ccc(C(=O)O)s1 (mixture of isomers) [Example 4D, 5-(3-((2R)-2-((3R,E)-3-hydroxy-4-methyl-7-phenylhept-1-en-1-yl)-5-oxopyrrolidin-1-yl)propyl)thiophene-2-carboxylic acid]					> 10000

From patent US9676712B2, “Lactam compounds as EP4 receptor-selective agonists for use in the treatment of EP4-mediated diseases and conditions” (Cayman Chemical Company, Inc., priority 2013, dated 2017)
